The molecules below were run on cholera toxin (CTX)-induced net fluid secretion in small intestine loops (assay: not given). Details: 4 hours.
Type: in vivo, mice (CD1 strain)
`O=C(c1cc(-c2cc(Cl)c(O)c(Cl)c2)nnc1OCCc1ccc(Cl)cc1)N(CCO)Cc1ccccc1` [Compound 11, N-benzyl-3-(4-chlorophenethoxy)-6-(3,5-dichloro-4-hydroxyphenyl)-N-(2-hydroxyethyl)pyridazine-4-carboxamide] was tested, and the “closed loop % inhibition@100 μg” value was 63.2%.

Each molecule was assayed against T1, CFTR (Homo sapiens, UniProt P13569) (assay: T84 assay (FLIPR membrane potential, forskolin/IBMX-stimulated CFTR channel activity)). Details: Human colonic T84 cells; average of at least 2 runs unless annotated n = 1.
T1 construct: host or cells: Human colonic T84 cells
T1 sequence (P13569 whole entry): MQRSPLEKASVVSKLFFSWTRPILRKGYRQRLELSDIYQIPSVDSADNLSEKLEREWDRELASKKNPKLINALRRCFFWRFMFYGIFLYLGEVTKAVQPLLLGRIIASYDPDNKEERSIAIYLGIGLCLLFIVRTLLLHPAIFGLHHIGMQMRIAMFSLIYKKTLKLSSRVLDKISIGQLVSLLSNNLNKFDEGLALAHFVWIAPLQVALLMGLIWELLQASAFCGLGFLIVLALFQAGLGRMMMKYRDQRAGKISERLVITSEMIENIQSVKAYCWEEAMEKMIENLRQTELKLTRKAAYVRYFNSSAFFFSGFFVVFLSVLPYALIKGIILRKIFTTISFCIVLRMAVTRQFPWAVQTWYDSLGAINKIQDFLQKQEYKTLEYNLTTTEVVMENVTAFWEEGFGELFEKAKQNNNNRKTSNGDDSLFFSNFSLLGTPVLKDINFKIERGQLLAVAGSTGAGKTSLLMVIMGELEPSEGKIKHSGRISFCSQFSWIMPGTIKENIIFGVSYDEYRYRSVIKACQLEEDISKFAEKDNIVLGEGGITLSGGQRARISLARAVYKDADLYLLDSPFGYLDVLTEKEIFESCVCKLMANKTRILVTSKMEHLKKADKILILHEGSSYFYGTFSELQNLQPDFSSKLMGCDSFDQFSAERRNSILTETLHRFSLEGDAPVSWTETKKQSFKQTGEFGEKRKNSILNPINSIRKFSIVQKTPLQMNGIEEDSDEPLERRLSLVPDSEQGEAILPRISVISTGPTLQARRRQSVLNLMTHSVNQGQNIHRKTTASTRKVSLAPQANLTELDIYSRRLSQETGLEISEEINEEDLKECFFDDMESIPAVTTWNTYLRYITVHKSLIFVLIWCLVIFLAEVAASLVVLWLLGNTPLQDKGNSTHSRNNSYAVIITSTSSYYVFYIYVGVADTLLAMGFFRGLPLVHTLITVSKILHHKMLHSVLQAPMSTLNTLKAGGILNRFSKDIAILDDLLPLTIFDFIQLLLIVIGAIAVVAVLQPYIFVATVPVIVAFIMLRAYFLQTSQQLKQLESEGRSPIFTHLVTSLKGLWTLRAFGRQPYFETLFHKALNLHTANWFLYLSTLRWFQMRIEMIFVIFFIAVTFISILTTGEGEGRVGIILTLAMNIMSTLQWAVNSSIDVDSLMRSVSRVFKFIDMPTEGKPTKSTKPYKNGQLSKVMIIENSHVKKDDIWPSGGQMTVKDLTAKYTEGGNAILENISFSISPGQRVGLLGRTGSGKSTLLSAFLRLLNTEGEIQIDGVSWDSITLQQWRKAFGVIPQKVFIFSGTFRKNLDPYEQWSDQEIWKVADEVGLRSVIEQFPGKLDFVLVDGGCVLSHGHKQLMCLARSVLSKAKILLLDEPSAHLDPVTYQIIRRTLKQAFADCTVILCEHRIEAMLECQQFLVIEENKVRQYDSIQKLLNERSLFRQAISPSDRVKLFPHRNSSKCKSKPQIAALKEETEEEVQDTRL
Type: cell-based
Experimental: (§1) For example, Human colonic T84 cells can be acquired from the European Collection of Cell Cultures (ECACC) and grown in standard culture conditions as described by the supplier. On the day before assay 25,000 T84 cells per well are plated into standard black walled, clear bottom 384-well assay plates in standard growth medium consisting of DMEM:F12 with 10% FBS and incubated overnight. On the day of the assay the plates are washed using a standard assay buffer (HBSS with 10 mM Hepes) and incubated for 15 minutes in serum free cell culture medium before the addition of a commercially available membrane potential sensitive fluorescent dye (FLIPR Red membrane potential dye, Molecular Devices Corporation). T84 cells are incubated with the FLIPR Red membrane potential dye for 45 minutes in the presence and absence of test compound before being transferred to a commercially available fluorescence imaging plate reader (FLIPR384, Molecular Devices Corporation). Fluorescence levels are monitored continuously every second for 150 seconds; after an initial 10 second baseline, CFTR channel activity is stimulated through the addition of 10 μM forskolin in the presence of 100 μM of the phosphodiesterase inhibitor iso-butyl-methylxanthine (IBMX). Addition of the forskolin leads to the activation of intracellular adenylyl cylase 1, elevating cAMP levels and results in the phosphorylation and opening of CFTR anion channels. CFTR channel opening causes chloride ion efflux and subsequent depolarization of the cells, which is measured by an increase in fluorescence. CFTR inhibitor compounds prevent cell depolarization and the associated increase in fluorescence.
as §1, with “Human colonic” for “For example, Human colonic”, “T84 cells are acquired from” for “T84 cells can be acquired from”, “(ECACC) and are grown in” for “(ECACC) and grown in”
Work on `O=C(c1cc(-c2cc(Cl)c(O)c(Cl)c2)nnc1OCCc1ccc(Cl)cc1)N(CCO)Cc1ccccc1` [Compound 11, N-benzyl-3-(4-chlorophenethoxy)-6-(3,5-dichloro-4-hydroxyphenyl)-N-(2-hydroxyethyl)pyridazine-4-carboxamide] yielded an IC50 of 8.26 µM. In the case of `O=C(c1cc(-c2cc(Cl)c(O)c(Cl)c2)nnc1OCCc1ccc(Cl)cc1)N(CCO)Cc1cccnc1` [Compound 24, 3-(4-chlorophenethoxy)-6-(3,5-dichloro-4-hydroxyphenyl)-N-(2-hydroxyethyl)-N-(pyridin-3-ylmethyl)pyridazine-4-carboxamide], the IC50 is reported as 19.4 µM. `O=C(c1cc(-c2cc(Cl)c(O)c(Cl)c2)nnc1OCCc1ccc(Cl)cc1)N(CCO)Cc1ccccn1` [Compound 25, 3-(4-chlorophenethoxy)-6-(3,5-dichloro-4-hydroxyphenyl)-N-(2-hydroxyethyl)-N-(pyridin-2-ylmethyl)pyridazine-4-carboxamide] showed an IC50 of 14.7 µM. With `O=C(c1cc(-c2cc(Cl)c(O)c(Cl)c2)nnc1OCCc1ccc(Cl)cc1)N(Cc1ccccc1)CC(F)(F)F` [Compound 26, N-benzyl-3-(4-chlorophenethoxy)-6-(3,5-dichloro-4-hydroxyphenyl)-N-(2,2,2-trifluoroethyl)pyridazine-4-carboxamide] the IC50 was 23.5 µM. `CCN(Cc1ccccc1)C(=O)c1cc(-c2cc(Cl)c(O)c(Cl)c2)nnc1OCCc1ccc(Cl)cc1` [Compound 27, N-benzyl-3-(4-chlorophenethoxy)-6-(3,5-dichloro-4-hydroxyphenyl)-N-ethylpyridazine-4-carboxamide] showed an IC50 of 17 µM. `CN(Cc1ccccc1)C(=O)c1cc(-c2cc(Cl)c(O)c(Cl)c2)nnc1OCCc1ccc(Cl)cc1` [Compound 28, N-benzyl-3-(4-chlorophenethoxy)-6-(3,5-dichloro-4-hydroxyphenyl)-N-methylpyridazine-4-carboxamide] showed an IC50 of 10.2 µM. `COCCN(Cc1ccccc1)C(=O)c1cc(-c2cc(Cl)c(O)c(Cl)c2)nnc1OCCc1ccc(Cl)cc1` [Compound 29, N-benzyl-3-(4-chlorophenethoxy)-6-(3,5-dichloro-4-hydroxyphenyl)-N-(2-methoxyethyl)pyridazine-4-carboxamide] was tested, and the IC50 was 8.5 µM. `O=C(c1cc(-c2cc(Cl)c(O)c(Cl)c2)nnc1OCCc1ccc(Cl)cc1)N(CCO)Cc1ccc(Cl)c(Cl)c1` [Compound 30, 3-(4-chlorophenethoxy)-6-(3,5-dichloro-4-hydroxyphenyl)-N-(3,4-dichlorobenzyl)-N-(2-hydroxyethyl)pyridazine-4-carboxamide] gave an IC50 of 19 µM. Work on `COc1ccc(CN(CCO)C(=O)c2cc(-c3cc(Cl)c(O)c(Cl)c3)nnc2OCCc2ccc(Cl)cc2)cc1` [Compound 31, 3-(4-chlorophenethoxy)-6-(3,5-dichloro-4-hydroxyphenyl)-N-(2-hydroxyethyl)-N-(4-methoxybenzyl)pyridazine-4-carboxamide] yielded an IC50 of 25.2 µM. `O=C(c1cc(-c2cc(Cl)c(O)c(Cl)c2)nnc1OCCc1ccc(Cl)cc1)N(CCO)Cc1ccc2c(c1)OCO2` [Compound 32, N-(benzo[d][1,3]dioxol-5-ylmethyl)-3-(4-chlorophenethoxy)-6-(3,5-dichloro-4-hydroxyphenyl)-N-(2-hydroxyethyl)pyridazine-4-carboxamide] gave an IC50 of 16.1 µM. `COc1ccc(CN(CCO)C(=O)c2cc(-c3cc(Cl)c(O)c(Cl)c3)nnc2OCCc2ccc(Cl)cc2)cc1OC` [Compound 33, 3-(4-chlorophenethoxy)-6-(3,5-dichloro-4-hydroxyphenyl)-N-(3,4-dimethoxybenzyl)-N-(2-hydroxyethyl)pyridazine-4-carboxamide] was tested, and the IC50 was 13.7 µM. Work on `CC(C)(C)c1ccc(CNC(=O)c2cc(-c3cc(Cl)c(O)c(Cl)c3)nnc2OCCc2ccc(Cl)cc2)cc1` [Compound 34, N-(4-tert-butylbenzyl)-3-(4-chlorophenethoxy)-6-(3,5-dichloro-4-hydroxyphenyl)pyridazine-4-carboxamide] yielded an IC50 of 20.1 µM.

Reference: patent US20100267706A1, “Compounds, Compositions and Methods Comprising Pyridazine Derivatives” (Institute for OneWorld Health, priority 2009, published 2010)
